Experiment: Solubility properties in acrylate monomers
Assay type: physicochemical
Settings: 0.2 g in 2.5 g TMP(3EO)TA, 40° C.
Experimental: For determining the solubility properties in acrylate monomers, which are customarily used for the preparation of overprint varnishes and UV-curable inks, 0.2 g each of the compounds obtained according to Examples 1 and 2 is stirred into 2.5 g of the acrylate monomer in question. In dipropylene glycol diacrylate (DPGDA) both compounds have dissolved within a period of 15 minutes at room temperature. In ethoxylated trimethylolpropane triacrylate (TMP(3EO)TA) the compound according to Example 2 dissolves within a period of 10 minutes at 40° C., while the compound according to Example 1 dissolves after only 4 minutes' heating at 40° C.

Compound	time to dissolve in ethoxylated trimethylolpropane triacrylate (TMP(3EO)TA)
Cc1cccc(C(=O)c2ccc(-c3ccccc3)cc2)c1 [Example 1, 3-methyl-4′-phenylbenzophenone]	4 min
Cc1cc(C)c(C(=O)c2ccc(-c3ccccc3)cc2)c(C)c1 [Example 2, 2,4,6-trimethyl-4′-phenylbenzophenone]	≤ 10 min
